The test system of one series is human taste panel. Put plainly: Human taste panel magnitude estimation of sweetness intensity and pleasantness. The text has this:
Solutions were presented to the subjects in a randomized fashion and were sampled in duplicate. After tasting, each solution was expectorated, and the mouth was washed with distilled water.

Another series deals with male Swiss-Webster mice. Nature of the series: in vivo. As for the experimental part:
(§1) Compounds were suspended in a minimum volume of 1% sodium carboxymethylcellulose, and were administered by oral intubation at the doses indicated in Table II.
(§2) ^a Male SwissWebster mice (9 or 10 animals per dose).
(§3) ^d Mortality = number of mice dying within 14 days/number of starting
(§4) ^e Mortality = number of mice dying within 24 hours/number of startin

In series [1] the test system is S. mutans. Put plainly: Cariogenicity: acid production by S. mutans from sweetener. Type of series: cell-based. As for the experimental part: In a first test, the ability of microbes to utilize this sweetener source as a nutrient and convert it to acidic by-products was determined.
Series [2] concerns Salmonella typhimurium strain TM677. Nature of the series: Forward mutation assay. The class given is cell-based.
Series [3] concerns S. mutans. Nature of the series: Cariogenicity: inhibition of acid production from sucrose by S. mutans. As to conditions: 428 micrograms per unit volume sucrose, 5,000 micrograms per unit volume sweetener. The class given is cell-based. The method, then: In a second test, the ability of the test compound to inhibit acid production from sucrose by S. mutans was determined.
The next series in a line: in vivo. As to conditions: mouse, in vivo, po. The method, then:
as §1, §2, §3, §4

Series [4] in a line: Stability in citrate-phosphate-borate buffer solutions by TLC. The class given is physicochemical. The method, then:
The first of these manipulations was conducted by storage of this compound in citrate-phosphate-borate buffer solutions, at the pH levels 2, 3, 4, 6, 7, 8, 10, and 12. […] Solutions were exposed to the atmosphere after their constitution.
Compound decomposition was assessed by counting the number of zones apparent by TLC analysis 1 hour, 3 hours, 6 hours, 24 hours, 1 week and 2 weeks after solution composition.

The next series in a line: Water solubility. The class given is physicochemical.
The nature of series [5]: Body weight variation in mice following oral administration. As to conditions: mouse, in vivo, po. As for the experimental part: as §1
The nature of series [6]: Thermostability of neat hernandulcin at 100° C. by TLC. Type of series: physicochemical.
Excerpt: These figures represent approximations obtained by calculating TLC zone areas.
Where [7] appears, read: synthetic hernandulcin, 60° C., 1 week and 2 weeks.
Where [8] appears, read: natural hernandulcin 2.5 × 10^-4 M.
Setting [9] is: synthetic hernandulcin, 100° C., 24 hours, TLC zone areas.

This is an account of results in US4808409A, “Low cariogenic sweetening agents” (Board of Trustees, University of Illinois, priority 1984, dated 1989).

The LD50 is the dose expected to kill half of the subjects tested. Low readings indicate greater toxicity, high ones lower toxicity. One may read the solubility as the concentration that dissolves in the medium under given conditions. Low values mean little dissolved substance, high ones much dissolved substance. As a reminder, the share remaining is the share of the starting amount still present when the sample was taken.

In brackets after ≈: the same amount, converted by molar mass.

For the molecule `CC(C)=CCC[C@@](C)(O)[C@H]1CCC(C)=CC1=O` (relative stereo) [synthetic hernandulcin, 6-(1',5'-dimethyl-1'-hydroxyhex-4'-en-1'-yl)-3-methyl-2-cyclohexen-1-one], the Taste result in the series on human taste panel (in words, synthetic racemic hernandulcin) is reported as “sweet”. Further, the “Acute toxicity for mice” value with male Swiss-Webster mice (oral, in words) is reported as “non-toxic”. In the series with S. mutans [1] (5,000 micrograms per unit volume sweetener), the “Rate of acid production at 5,000 micrograms per unit volume” value is on record as 2.6×10^-5 mEq acid/min. Further, the “Rate of acid production compared to sucrose” value in the series on S. mutans [1] (in words, 5,000 micrograms per unit volume) is “relatively low rate of acid production”. Also, the “Mutagenic activity without metabolic activation” value in series [2] (synthetic hernandulcin, in absence of activating system) is on record as “No significant mutagenic activity”. Besides, the “Mutagenic activity with metabolic activation” value in [2] (synthetic hernandulcin, in presence of activating system from livers of Aroclor 1254-pretreated rats) is “No significant mutagenic activity”. Besides, in the series on S. mutans [3], the “Inhibition of acid production from sucrose” value is reported as “failed to reduce the rate of acid production”.

As for `CC1=CC(=O)CCC1` [3-Methyl-2-cyclohexen-1-one, 3-methyl-2-cyclohexen-1-one], in the series on male Swiss-Webster mice (mouse, in vivo, po), the “Estimated LD50” value was 1.6 ± 0.13 g/kg. Moreover, in the series on male Swiss-Webster mice (oral, 1.1 g/kg), the “Mortality at 1.1 g/kg” value is 0/10. The “Mortality at 1.3 g/kg” value in the series with male Swiss-Webster mice (oral, 1.3 g/kg) was 2/10. For the same molecule, the “Mortality at 1.4 g/kg” value with male Swiss-Webster mice (oral, 1.4 g/kg) was 4/10. Also, in the series on male Swiss-Webster mice (oral, 1.6 g/kg), the “Mortality at 1.6 g/kg” value is listed as 5/10. The “Mortality at 2.0 g/kg (24 hours)” value in the series on male Swiss-Webster mice (oral, 2.0 g/kg, 24 hours) is listed as 8/10. The “Mortality at 2.4 g/kg” value in the series on male Swiss-Webster mice (oral, 2.4 g/kg) is on record as 10/10. In addition, the “Acute toxicity for mice” value with male Swiss-Webster mice (oral, in words) was “essentially non-toxic”. This molecule gave an LD50 at 24 h in the series “in vivo” of less than 2000 mg/kg.

As to `CC(C)=CCC[C@@](C)(O)[C@H]1CCC(C)=CC1=O` (relative stereo) [Hernandulcin, 6-(1',5'-dimethyl-1'-hydroxyhex-4'-en-1'-yl)-3-methyl-2-cyclohexen-1-one], in series [4] (setting [7]), the “Detectability of hernandulcin after storage” value is on record as “detectable at all pH's”; the “pH dependence of decomposition” value was “greater degrees of decomposition being observed at the acid and alkaline pH extremes”. In series [4] (synthetic hernandulcin, about 0.1 wt. %, pH 2-12, 60° C.), the “Breakdown in buffer at 60° C., 1 week and 2 weeks” value is recorded as “substantial breakdown was apparent in all solutions”. Besides, the “Decomposition in buffer at 60° C., up to 24 hours” value in series [4] (synthetic hernandulcin, about 0.1 wt. %, pH 2-12, 60° C., up to 24 hours) is “no decomposition was observed”. For the same molecule, the “Breakdown in buffer at room temperature” value in series [4] (synthetic hernandulcin, about 0.1 wt. %, pH 2-12, room temperature, up to two weeks) is listed as “no compound breakdown was evident”. The Stability to hydrolysis entry in [4] (wide pH range, up to about 60° C.) is “relatively stable to hydrolysis over a wide pH range”. Further, the EC (sweetness equal to 0.27 M sucrose) in the series with human taste panel (Homo sapiens, natural hernandulcin, distilled water, 17 participants, read-out: Concentration matching the sweetness of 0.27 M sucrose) is 250 µM. In the series with human taste panel (in words, natural hernandulcin), the “Bitterness judged by the panel” value is on record as “moderate bitterness”; the “Off- and after-tastes judged by the panel” value is “significant off- and after-tastes”; the “Pleasantness judged by the panel” value is reported as “less pleasant than sucrose”. For the same molecule, in the series on human taste panel (setting [8]), the After-taste intensity is listed as 30, the After-taste pleasantness is given as 0, the Bitterness is 15 and the Off-taste intensity is 33. Moreover, the Off-taste pleasantness in the series on human taste panel (setting [8]) is recorded as -5. For the same molecule, in the series with human taste panel (natural hernandulcin, distilled water, 17 participants), the “Concentration matching the sweetness of 0.27 M sucrose” value was roughly 250 µM. Besides, in the series with human taste panel (natural, 1.06 × 10^-5 M, scale 0-100, mean (standard error)), the “Sweetness intensity, hernandulcin 1.06 × 10^-5 M” value was 9.7 (4.19). Further, the “Sweetness pleasantness, hernandulcin 1.06 × 10^-5 M” value in the series with human taste panel (natural, 1.06 × 10^-5 M, scale -100 to +100, mean (standard error)) is 1.2 (5.58). Besides, the “Sweetness intensity, hernandulcin 2.11 × 10^-5 M” value in the series with human taste panel (natural, 2.11 × 10^-5 M, scale 0-100, mean (standard error)) is reported as 8.8 (2.37). Also, the “Sweetness pleasantness, hernandulcin 2.11 × 10^-5 M” value in the series on human taste panel (natural, 2.11 × 10^-5 M, scale -100 to +100, mean (standard error)) is 2.6 (6.00). For the same molecule, the “Sweetness intensity, hernandulcin 4.24 × 10^-5 M” value in the series with human taste panel (natural, 4.24 × 10^-5 M, scale 0-100, mean (standard error)) is listed as 8.8 (3.18). In the series with human taste panel (natural, 4.24 × 10^-5 M, scale -100 to +100, mean (standard error)), the “Sweetness pleasantness, hernandulcin 4.24 × 10^-5 M” value is recorded as 1.2 (4.18). The “Sweetness intensity, hernandulcin 8.47 × 10^-5 M” value in the series on human taste panel (natural, 8.47 × 10^-5 M, scale 0-100, mean (standard error)) is 15.8 (4.10). In the series with human taste panel (natural, 8.47 × 10^-5 M, scale -100 to +100, mean (standard error)), the “Sweetness pleasantness, hernandulcin 8.47 × 10^-5 M” value is recorded as 4.9 (7.67). Besides, in the series with human taste panel (natural, 16.9 × 10^-5 M, scale 0-100, mean (standard error)), the “Sweetness intensity, hernandulcin 16.9 × 10^-5 M” value was 39.7 (3.52). Besides, the “Sweetness pleasantness, hernandulcin 16.9 × 10^-5 M” value in the series on human taste panel (natural, 16.9 × 10^-5 M, scale -100 to +100, mean (standard error)) was 24.8 (7.99). For the same molecule, the “Sweetness intensity, hernandulcin 33.9 × 10^-5 M” value in the series with human taste panel (natural, 33.9 × 10^-5 M, scale 0-100, mean (standard error)) is 44.4 (5.45). Further, the “Sweetness pleasantness, hernandulcin 33.9 × 10^-5 M” value in the series on human taste panel (natural, 33.9 × 10^-5 M, scale -100 to +100, mean (standard error)) was 8.2 (10.70). Further, the “Sweetness intensity, hernandulcin 67.8 × 10^-5 M” value in the series on human taste panel (natural, 67.8 × 10^-5 M, scale 0-100, mean (standard error)) is 62.7 (5.59). Further, in the series with human taste panel (natural, 67.8 × 10^-5 M, scale -100 to +100, mean (standard error)), the “Sweetness pleasantness, hernandulcin 67.8 × 10^-5 M” value is listed as -16.2 (9.78). Also, in the series with human taste panel (scale 0-100, sucrose 0.27 M, natural hernandulcin 2.5 × 10^-4 M), the “Sweetness intensity at matched concentration” value was 40. Besides, the “Sweetness pleasantness at matched concentration” value with human taste panel (scale -100 to +100, natural hernandulcin 2.5 × 10^-4 M) is on record as 15. Further, the “Acute toxicity for mice” value in the series with male Swiss-Webster mice (oral, in words) is reported as “non-toxic”. The “Mortality at doses up to 2 g/kg” value in the series with male Swiss-Webster mice (oral, up to 2 g/kg body weight, in words) is “no mortality”. In the series “Water solubility”, this molecule showed a solubility of roughly 500 µg/mL (≈ 2120 µM). In addition, in series [5], the “Body weight, Day 1 (1.0 g/kg)” value turned out to be 27.1 ± 0.8 g; the “Body weight, Day 1 (2.0 g/kg)” value is given as 25.6 ± 0.9 g; the “Body weight, Day 3 (1.0 g/kg)” value turned out to be 26.7 ± 0.8 g; the “Body weight, Day 3 (2.0 g/kg)” value turned out to be 26.3 ± 0.9 g. In addition, in series [5], the “Body weight, Day 7 (1.0 g/kg)” value amounted to 27.9 ± 0.8 g; the “Body weight, Day 7 (2.0 g/kg)” value is on record as 26.0 ± 0.9 g; the “Body weight, Day 14 (1.0 g/kg)” value is reported as 28.1 ± 0.8 g; the “Body weight, Day 14 (2.0 g/kg)” value worked out at 27.6 ± 0.9 g. Besides, in series [5], the “Body weight, pre-drug (1.0 g/kg group)” value is 29.3 ± 0.8 g and the “Body weight, pre-drug (2.0 g/kg group)” value is 26.0 ± 0.9 g. For the same molecule, the Mutagenicity result in [2] (summary in words) is reported as “non-mutagenic”. For the same molecule, the fraction remaining at 24 h in series [6] (neat compound, read-out: Compound remaining unchanged) is roughly 60%. In addition, in series [6] (setting [9]), the “Conversion to 3-methyl-2-cyclohexen-1-one” value is roughly 10% and the “Conversion to 6-methyl-5-hepten-2-one” value is recorded as roughly 10%.
